Measured values from patent publication US6875843B2, “Prevention of diabetes and prolongation of the honeymoon phase of diabetes by administration of GnRH antagonists” (Children's Mercy Hospital, priority 2001, dated 2005).

How the values were obtained:
Type in all cases: in vivo, mouse
NOD mice [1] = assay: Serum total immunoglobulin G in gonadectomized NOD mice (single radial immunodiffusion); settings: 100 μg s.c. six times weekly, 8 weeks of treatment, vs vehicle (FIG. 3)
Source text: (§1) Mice. The well-characterized NOD mice were used throughout the study. Male and female mice were purchased from the Jackson Laboratory (Bar Harbor, Me.). These mice are art-recognized animal models used in diabetes research. (Makino et al., (1980) Breeding of a Non-obese Diabetic Strain of Mice. Exp Anim, 29, 1-13; Miyazaki, A. T., et al, (1985) Predominance of T Lymphocytes in Pancreatic Islets and Spleen in Prediabetic Non-Obese Diabetic (Nod) Mice: a Longitudinal Study. Clin Exp immunol, 60, 622-630)
Experimental Design. Both intact and gonadectomized mice (GDX) were used. […] To compare the effects of GnRH agonists and antagonists, gonadectomized animals were randomized at 14 to 18 days of age and begun immediately in one of the following main treatment groups: GnRH agonist; Antide; vehicle. One group of gonadectomized males was treated with Nal-Glu, as an additional control. […]
Clinical tests. Total immunoglobulin G concentrations were measured by single radial immunodiffusion assay using immunodiffusion plates containing monospecific antiserum for IgG (ICN Biomedicals, Inc., Costa Mesa, Calif. ). […] Glycosuria was scored by comparison to reference standards on a scale of 0 to 4 as follows: negative=0; 30 mg/dL=1; 100 mg/dL=2; 300 mg/dL=3;>1000 mg/dL=4.
Statistics. […] Percentages of mice remaining diabetes-free was assessed by Mantel-Haenszel methodology. […]

NOD mice [2] = assay: Incidence and onset of diabetes in gonadectomized male NOD mice; settings: for Timing of onset of diabetes: gonadectomized NOD mice; for Timing of onset of diabetes / Incidence of diabetes: 100 μg s.c. six times weekly (FIG. 4)
Source text: as §1
Experimental Design. Both intact and gonadectomized mice (GDX) were used. […] To compare the effects of GnRH agonists and antagonists, gonadectomized animals were randomized at 14 to 18 days of age and begun immediately in one of the following main treatment groups: GnRH agonist; Antide; vehicle. One group of gonadectomized males was treated with Nal-Glu, as an additional control.
(§2) Gonadectomy. Males were gonadectomized via a single scrotal incision under pentobarbital anesthesia.
(§3) Injections. GnRH (native decapeptide) was purchased from Bachem (Bubendorf, Switzerland). GnRH antagonist Antide (Acetyl-β-[2-Naphthyl]-D-Ala-D-p-Chloro-Phe-β-[3-Pyridyl]-D-Ala-Ser-Nε-[Nicotinoyl]-Lys-Nε-[Nicotinoyl]-D-Lys-Leu-Nε-[Isopropyl]-Lys-Pro-D-Ala-NH2) was supplied by Contraceptive Development Branch (NICHHD) of the National Institutes of Health and Ares-Serono (Randolph, Mass.). A second GnRH antagonist, Nal-Glu (acetyl-D2Nal1, D4CIPhe2, D3Pal3, Arg5, Dglu6 (AA), DAla10) was supplied by NICHHD and was used on a subset of mice. All references to GnRH agonist refer to the native decapeptide. Animals were injected subcutaneously in the nape of the neck six times weekly, in the a.m., with 100 μg of GnRH or GnRH antagonist in 100 μl of vehicle consisting of 50% propylene glycol and 50% double distilled water.
Clinical tests. Total immunoglobulin G concentrations were measured by single radial immunodiffusion assay using immunodiffusion plates containing monospecific antiserum for IgG (ICN Biomedicals, Inc., Costa Mesa, Calif. ). Serum glucoses were checked weekly using a One Touch Fast Take meter (Lifescan, Milpitas, Calif.) Urine was tested for glucose by urinalysis reagent strips (Miles, Inc., Elkhart Ind.). Glycosuria was scored by comparison to reference standards on a scale of 0 to 4 as follows: negative=0; 30 mg/dL=1; 100 mg/dL=2; 300 mg/dL=3;>1000 mg/dL=4.
Statistics. Serum immunoglobulin measurements were compared by two-tailed Student's paired t-tests. Percentages of mice remaining diabetes-free was assessed by Mantel-Haenszel methodology. (Mantel, N. (1966) Evaluation of Survival Data and Two New Rank Order Statistics Arising in its Consideration. Cancer Chemother Rep, 50, 163-70)

NOD mice [3] = assay: Lymphocytic infiltration of islet cells, pancreatic histology in gonadectomized NOD mice; settings: 100 μg s.c. six times weekly, 3, 5, 7, 9 and 11 weeks, vs vehicle (FIG. 5)
Experimental: In this example, gonadectomized NOD mice were treated with either the GnRH antagonist Antide or the vehicle (50% propylene glycol and 50% double distilled water) to determine differences in the rate of lymphocytic infiltration of islet cells.
Mice. The well-characterized NOD mice were used throughout the study. Male and female mice were purchased from the Jackson Laboratory (Bar Harbor, Me.). Again, these mice are art-recognized animal models used in diabetes research.
as §2
Injections. The mice were injected subcutaneously in the nape of the neck six times weekly, in the a.m., with 100 μg of the GnRH antagonist in 100 μl of vehicle consisting of 50% propylene glycol and 50% double distilled water.
Pancreatic Histology. Three mice per treatment group were euthanized at 3, 5, 7, 9, and 11 weeks. Pancreatic histologic sections were stained by hemotoxillin and eosin. Ten tissue sections per treatment group were examined. All […] in each tissue section were scored with regard to the presence or absence of lymphocytic infiltrates.

NOD mice [4] = assay: Serum prolactin by radioimmunoassay in NOD mice; settings: 100 μg s.c. six times weekly
Source text: as §3
Sera. Sera were collected from blood obtained every six weeks by retroorbital puncture after light isofluorane anesthesia.
Hormone measurements. Serum testosterone concentrations were measured by RIA using a commercial kit (Coat-A-Count, Diagnostic Products Corporation, Los Angeles, Calif.). Serum LH and prolactin were measured by radioimmunoassay (RIA) using previously described methods. […]

Row | Substance | Serum IgG concentrations (NOD mice [1]) | Timing of onset of diabetes (NOD mice [2]) | Incidence of diabetes (NOD mice [2]; gonadectomized male NOD mice) | Percentage of treated mice diabetic (NOD mice [2]; gonadectomized male NOD mice, 100 μg s.c. six times weekly, at 60 weeks of age, compared to vehicle (FIG. 4)) | Lymphocytic infiltration of islets (percentages of islets infiltrated) (NOD mice [3]) | Serum prolactin levels (NOD mice [4])
1 | Acetyl-β-[2-Naphthyl]-D-Ala-D-p-Chloro-Phe-β-[3-Pyridyl]-D-Ala-Ser-Nε-[Nicotinoyl]-Lys-Nε-[Nicotinoyl]-D-Lys-Leu-Nε-[Isopropyl]-Lys-Pro-D-Ala-NH2 [Antide] | reduced serum IgG concentrations to levels seen in sham operated mice | delayed onset of diabetes | significantly decreased | 0% | statistically significant reduction in lymphocytic infiltration | neither agonist nor antagonist treatment altered serum prolactin levels
2 | GnRH agonist: GnRH native decapeptide purchased from Bachem; all references to GnRH agonist refer to the native decapeptide (QHWSYGLRPG; Gonadoliberin-1; UniProt P01148 24-33, looked up) | further increased IgG levels compared to vehicle | accelerated | significantly increased |  |  | neither agonist nor antagonist treatment altered serum prolactin levels
